Data set [1] in a line: Pharmacokinetic studies in rats. As to conditions: rat, in vivo, 3 mg/kg, 3 mg/kg in EtOH/Solutol/H2O formulation. The method, then:
Pharmacokinetic properties of 4-(3,5-dichloro-2,4,6-trideuteriumphenoxy)-3-(3-oxo-piperazine-1-sulfonyl)-2,5,6-trideuteriumbenzonitrile 36 and 4-(3,5-dichlorophenoxy)-3-(3-oxo-piperazine-1-sulfonyl)benzonitrile C1 were determined using rats. Animals were randomized into two groups, each having 3 rats. 4-(3,5-Dichloro-2,4,6-trideuteriumphenoxy)-3-(3-oxo-piperazine-1-sulfonyl)-2,5,6-trideuteriumbenzonitrile 36 and 4-(3,5-dichlorophenoxy)-3-(3-oxo-piperazine-1-sulfonyl)benzonitrile C1 were administered at 3 mg/kg in EtOH/Solutol/H2O formulations. Pharmacokinetic parameters of 4-(3,5-dichloro-2,4,6-trideuteriumphenoxy)-3-(3-oxo-piperazine-1-sulfonyl)-2,5,6-trideuteriumbenzonitrile 36 and 4-(3,5-dichlorophenoxy)-3-(3-oxo-piperazine-1-sulfonyl)benzonitrile C1 are summarized in Table 2. 4-(3,5-dichlorophenoxy)-3-(3-oxo-piperazine-1-sulfonyl)benzonitrile C1 was synthesized according to the procedure as described in U.S. Pat. App. Pub. No.: US 2011/0218207, the disclosure of which is incorporated herein by reference in its entirety.

The values that follow come from patent US9637460B2, “Isotopically enriched arylsulfonamide CCR3 antagonists” (Axikin Pharmaceuticals, Inc., priority 2012, dated 2017).

Where two headings read alike, the source gives them in different places.

As a reminder, the Cmax is the peak of the concentration-time curve. The Tmax is the time from dosing to the highest level. What is called half-life is the time needed for the level to fall by half in the phase considered. Usually melting point stands for the temperature, or range, at which the solid turns liquid.

For `[2H]c1c(Cl)c([2H])c(Oc2c([2H])c([2H])c(C#N)c([2H])c2S(=O)(=O)N2CCNC(=O)C2)c([2H])c1Cl` [Compound 36, 4-(3,5-dichloro-2,4,6-trideuteriumphenoxy)-3-(3-oxo-piperazine-1-sulfonyl)-2,5,6-trideuteriumbenzonitrile], the melting point was 207 to 210 °C. Further, in data set [1] (Rat 1), the highest level (Cmax) was 166 ng/mL, the time of peak concentration (Tmax) is 2 h and the half-life is 3.3 h. Moreover, the AUC in data set [1] (Rat 1, read-out: AUC) came to 820 ng·h/mL. In data set [1] (Rat 1, read-out: AUCnorm), the AUC was 273 ng·h/mL. In data set [1] (Rat 2), the highest level (Cmax) was 46.3 ng/mL, the time to peak (Tmax) was determined as 4 h and the half-life was 1.12 h. Also, the AUC in data set [1] (Rat 2, read-out: AUC) stood at 272 ng·h/mL. The AUC in data set [1] (Rat 2, read-out: AUCnorm) amounted to 90.6 ng·h/mL. Further, in data set [1] (Rat 3), the peak concentration (Cmax) was determined as 128 ng/mL, the Tmax was determined as 0.3 h and the half-life is 1.51 h. Moreover, in data set [1] (Rat 3, read-out: AUC), the AUC came to 490 ng·h/mL. The AUC in data set [1] (Rat 3, read-out: AUCnorm) was 163 ng·h/mL.

In the case of `N#Cc1ccc(Oc2cc(Cl)cc(Cl)c2)c(S(=O)(=O)N2CCNC(=O)C2)c1` [Compound C1, 4-(3,5-dichlorophenoxy)-3-(3-oxo-piperazine-1-sulfonyl)benzonitrile, reference compound], the figures for the Cmax in data set [1] (Rat 1), in data set [1] (Rat 2) and in data set [1] (Rat 3) were 34.4 ng/mL, 65.8 ng/mL and 59.9 ng/mL, respectively. Further, the Tmax in data set [1] (Rat 1) is 2 h; in data set [1] (Rat 2), 4 h; in data set [1] (Rat 3), 2 h. Besides, the half-life is 5.52 h in data set [1] (Rat 1), 3.72 h in data set [1] (Rat 2) and 4.04 h in data set [1] (Rat 3). Also, the AUC in data set [1] (Rat 1, read-out: AUC) came out at 200 ng·h/mL; in data set [1] (Rat 1, read-out: AUCnorm), 66.6 ng·h/mL; in data set [1] (Rat 2, read-out: AUC), 450 ng·h/mL; in data set [1] (Rat 2, read-out: AUCnorm), 150 ng·h/mL; in data set [1] (Rat 3, read-out: AUC), 317 ng·h/mL; in data set [1] (Rat 3, read-out: AUCnorm), 106 ng·h/mL.
